System: C57BL/6 mice
Experiment: Serum cytokine levels in C57BL/6 mice after i.v. injection (Luminex)
Assay type: in vivo
Settings: 0.1 micromole SM-360320 or equivalent amount UC-1V150/MSA (500 μg MSA per mouse), FIG. 5
Protocol: FIGS. 5A, 5B, 5C, and 5D illustrate the increased potency and duration of effect of UC-1V150/MSA. C57BL/6 mice were injected (i.v.) with (A) 0.1 micromole of SM-360320, a TLR7 ligand, or (B) equivalent amount of a TLR7 agonist UC-1V150 (aldehyde-modified SM-360320) or UC-1V150/MSA to 500 μg MSA per mouse. Serum samples were collected at the indicated time points and cytokine levels were analyzed by Luminex. MSA=mouse serum albumin. The effect from the original TLR7 ligand, SM-360320, lasted for only 2 hours whereas UC-1V150/MSA has extended the effect to at least 6 hours.
FIGS. 7A and 7B illustrates an increased potency of UC-1V150/MSA. C57BL/6 mice were i.v. injected with 380 nmole of SM-360320 or UC-1V150, or 500 μg of UC-1V150/MSA (equivalent to 3.8 nmole UC-1V150) per mouse. Serum samples were collected after 2 h and cytokine levels were analyzed by Luminex. To achieve the similar effect, at least 100-fold higher concentration of either UC-1V150 or SM-360320 was required as compared to that of UC-1V150/MSA.

Compound: COCCOc1nc(N)c2[nH]c(=O)n(Cc3ccccc3)c2n1 [SM-360320]
- duration of effect (serum cytokine levels): 2 h

— patent publication US20130165455A1, “TLR AGONISTS” (The Regents of The University of California, priority 2005, published 2013)
